From patent publication US10906915B2, “Substituted pyrazoloazepin-4-ones and their use as phosphodiesterase inhibitors” (LEO Pharma A/S, priority 2016, dated 2021)

molecular target: human PDE4D catalytic domain (UniProt no. Q08499) (Homo sapiens (Human), UniProt Q08499); assay: PDE4 assay (TR-FRET, FAM-cAMP cleavage); type: biochemical; conditions: human PDE4D catalytic domain; molar concentration giving 50% inhibition of substrate cleavage; read-out: PDE4 IC50 range
Summary of the method: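 Read-out is time-resolved FRET from Tb donor to FAM-AMP captured on trivalent-metal nanoparticles added to stop the reaction. Substrate was a mix of plain and FAM-labelled cAMP, cleaved by human PDE4D catalytic domain ([…]) with titrated compound; IC50 ranges (nM) versus controls.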

Sequence of human PDE4D catalytic domain (Q08499 380-740 limits assumed): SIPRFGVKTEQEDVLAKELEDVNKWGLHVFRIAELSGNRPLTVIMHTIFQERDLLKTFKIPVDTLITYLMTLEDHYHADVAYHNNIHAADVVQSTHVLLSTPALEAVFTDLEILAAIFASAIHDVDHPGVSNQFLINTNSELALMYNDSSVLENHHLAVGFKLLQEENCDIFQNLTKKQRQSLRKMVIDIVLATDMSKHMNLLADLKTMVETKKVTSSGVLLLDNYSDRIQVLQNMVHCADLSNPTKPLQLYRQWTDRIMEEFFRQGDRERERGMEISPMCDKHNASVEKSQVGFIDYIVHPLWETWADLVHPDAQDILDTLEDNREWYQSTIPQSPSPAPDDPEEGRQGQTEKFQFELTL

Compound	IC50 [nM]
CCc1nn(CCCOC(=O)c2c(F)cccc2C(F)(F)F)c2c1C(=O)NCC1(CCOCC1)C2 [Example 107, 3-(3-ethyl-4-oxo-spiro[6,8-dihydro-5H-pyrazolo[4,3-c]azepine-7,4′-tetrahydropyran]-1-yl)propyl 2-fluoro-6-(trifluoromethyl)benzoate]	< 100
CCc1nn(C[C@@H](C)COC(=O)c2ccc(Cl)cc2C)c2c1C(=O)NCC1(CCOCC1)C2 [Example 196, [(2R)-3-(3-ethyl-4-oxo-spiro[6,8-dihydro-5H-pyrazolo[4,3-c]azepine-7,4′-tetrahydropyran]-1-yl)-2-methyl-propyl] 4-chloro-2-methyl-benzoate]	< 100
CCc1nn(CCCOC(=O)c2ccc(C)c(F)c2)c2c1C(=O)NCC1(CCOCC1)C2 [Example 32, 3-(3-ethyl-4-oxo-spiro[6,8-dihydro-5H-pyrazolo[4,3-c]azepine-7,4′-tetrahydropyran]-1-yl)propyl 3-fluoro-4-methyl-benzoate]	< 100
CCc1nn(CCCOC(=O)c2ccc(C)c(C)c2)c2c1C(=O)NCC1(CCOCC1)C2 [Example 26, 3-(3-ethyl-4-oxo-spiro[6,8-dihydro-5H-pyrazolo[4,3-c]azepine-7,4′-tetrahydropyran]-1-yl)propyl 3,4-dimethylbenzoate]	< 100
CCc1nn(C[C@@H](C)COC(=O)c2ccc(C(=O)N3CCN(C)CC3)cc2)c2c1C(=O)NCC1(CCOCC1)C2 [Example 261, [(2R)-3-(3-ethyl-4-oxo-spiro[6,8-dihydro-5H-pyrazolo[4,3-c]azepine-7,4′-tetrahydropyran]-1-yl)-2-methyl-propyl] 4-(4-methylpiperazine-1-carbonyl)benzoate]	< 100
CCc1nn(CCCOC(=O)c2ccc(F)c(C#N)c2)c2c1C(=O)NCC1(CCOCC1)C2 [Example 55, 3-(3-ethyl-4-oxo-spiro[6,8-dihydro-5H-pyrazolo[4,3-c]azepine-7,4′-tetrahydropyran]-1-yl)propyl 3-cyano-4-fluoro-benzoate]	< 100
CCc1nn(C[C@@H](C)COC(=O)c2ccc(C#N)cc2)c2c1C(=O)NCC1(CCOCC1)C2 [Example 168, [(2R)-3-(3-ethyl-4-oxo-spiro[6,8-dihydro-5H-pyrazolo[4,3-c]azepine-7,4′-tetrahydropyran]-1-yl)-2-methyl-propyl] 4-cyanobenzoate]	< 100
CCc1nn(C[C@@H](C)COC(=O)c2cccc(S(C)(=O)=O)c2)c2c1C(=O)NCC1(CCOCC1)C2 [Example 213, [(2R)-3-(3-ethyl-4-oxo-spiro[6,8-dihydro-5H-pyrazolo[4,3-c]azepine-7,4′-tetrahydropyran]-1-yl)-2-methyl-propyl] 3-methylsulfonylbenzoate]	< 100
CCc1nn(C[C@@H](C)COC(=O)c2ccc(S(=O)(=O)N3CCOCC3)cc2)c2c1C(=O)NCC1(CCOCC1)C2 [Example 249, [(2R)-3-(3-ethyl-4-oxo-spiro[6,8-dihydro-5H-pyrazolo[4,3-c]azepine-7,4′-tetrahydropyran]-1-yl)-2-methyl-propyl] 4-morpholinosulfonylbenzoate]	< 100
CCc1nn(C[C@@H](C)COC(=O)c2ccc(F)cc2)c2c1C(=O)NCC1(CCOCC1)C2 [Example 166, [(2R)-3-(3-ethyl-4-oxo-spiro[6,8-dihydro-5H-pyrazolo[4,3-c]azepine-7,4′-tetrahydropyran]-1-yl)-2-methyl-propyl] 4-fluorobenzoate]	< 100
CCc1nn(C[C@@H](C)COC(=O)c2cccc(OC)c2Cl)c2c1C(=O)NCC1(CCOCC1)C2 [Example 207, [(2R)-3-(3-ethyl-4-oxo-spiro[6,8-dihydro-5H-pyrazolo[4,3-c]azepine-7,4′-tetrahydropyran]-1-yl)-2-methyl-propyl] 2-chloro-3-methoxy-benzoate]	< 100
CCc1nn(CCCOC(=O)c2cc(Cl)cc(C(F)(F)F)c2)c2c1C(=O)NCC1(CCOCC1)C2 [Example 127, 3-(3-ethyl-4-oxo-spiro[6,8-dihydro-5H-pyrazolo[4,3-c]azepine-7,4′-tetrahydropyran]-1-yl)propyl 3-chloro-5-(trifluoromethyl)benzoate]	< 100
CCc1nn(C[C@@H](C)COC(=O)c2ccc(OC)c(Cl)c2)c2c1C(=O)NCC1(CCOCC1)C2 [Example 206, [(2R)-3-(3-ethyl-4-oxo-spiro[6,8-dihydro-5H-pyrazolo[4,3-c]azepine-7,4′-tetrahydropyran]-1-yl)-2-methyl-propyl] 3-chloro-4-methoxy-benzoate]	< 100
CCc1nn(CCCOC(=O)c2ccc(C(=O)N3CCN(C(C)=O)CC3)cc2)c2c1C(=O)NCC1(CCOCC1)C2 [Example 149, 3-(3-ethyl-4-oxo-spiro[6,8-dihydro-5H-pyrazolo[4,3-c]azepine-7,4′-tetrahydropyran]-1-yl)propyl 4-(4-acetylpiperazine-1-carbonyl)benzoate]	100 to 500
CCc1nn(CCCOC(=O)c2ccc(S(=O)(=O)CC)cc2)c2c1C(=O)NCC1(CCOCC1)C2 [Example 115, 3-(3-ethyl-4-oxo-spiro[6,8-dihydro-5H-pyrazolo[4,3-c]azepine-7,4′-tetrahydropyran]-1-yl)propyl 4-ethylsulfonylbenzoate]	< 100
CCc1nn(C[C@@H](C)COC(=O)c2ccc(C(=O)N3CCNCC3)cc2)c2c1C(=O)NCC1(CCOCC1)C2 [Example 259, [(2R)-3-(3-ethyl-4-oxo-spiro[6,8-dihydro-5H-pyrazolo[4,3-c]azepine-7,4′-tetrahydropyran]-1-yl)-2-methyl-propyl] 4-(piperazine-1-carbonyl)benzoate]	< 100
CCc1nn(CCCOC(=O)c2ccc(OC)cc2F)c2c1C(=O)NCC1(CCOCC1)C2 [Example 64, 3-(3-ethyl-4-oxo-spiro[6,8-dihydro-5H-pyrazolo[4,3-c]azepine-7,4′-tetrahydropyran]-1-yl)propyl 2-fluoro-4-methoxy-benzoate]	< 100
CCc1nn(CCCOC(=O)c2cccc(C#N)c2)c2c1C(=O)NCC1(CCOCC1)C2 [Example 23, 3-(3-ethyl-4-oxo-spiro[6,8-dihydro-5H-pyrazolo[4,3-c]azepine-7,4′-tetrahydropyran]-1-yl)propyl 3-cyanobenzoate]	< 100
CCc1nn(CCCOC(=O)c2ccc(C)cc2Cl)c2c1C(=O)NCC1(CCOCC1)C2 [Example 73, 3-(3-ethyl-4-oxo-spiro[6,8-dihydro-5H-pyrazolo[4,3-c]azepine-7,4′-tetrahydropyran]-1-yl)propyl 2-chloro-4-methyl-benzoate]	< 100
CCc1nn(C[C@@H](C)COC(=O)c2ccc(C(N)=O)cc2)c2c1C(=O)NCC1(CCOCC1)C2 [Example 252, [(2R)-3-(3-ethyl-4-oxo-spiro[6,8-dihydro-5H-pyrazolo[4,3-c]azepine-7,4′-tetrahydropyran]-1-yl)-2-methyl-propyl] 4-carbamoylbenzoate]	< 100
CCc1nn(CCCOC(=O)c2ccc(C#N)cc2)c2c1C(=O)NCC1(CCOCC1)C2 [Example 24, 3-(3-ethyl-4-oxo-spiro[6,8-dihydro-5H-pyrazolo[4,3-c]azepine-7,4′-tetrahydropyran]-1-yl)propyl 4-cyanobenzoate]	< 100
CCc1nn(CCCOC(=O)c2c(C)cccc2F)c2c1C(=O)NCC1(CCOCC1)C2 [Example 39, 3-(3-ethyl-4-oxo-spiro[6,8-dihydro-5H-pyrazolo[4,3-c]azepine-7,4′-tetrahydropyran]-1-yl)propyl 2-fluoro-6-methyl-benzoate]	< 100

same assay, conditions: read-out: PDE4 IC50 range

Compound	IC50 [nM]
CCc1nn(CC(C)(C)COC(=O)c2ccc(S(=O)(=O)N3CCCC3)cc2)c2c1C(=O)NCC1(CCOCC1)C2 [Example 321, [3-(3-ethyl-4-oxo-spiro[6,8-dihydro-5H-pyrazolo[4,3-c]azepine-7,4′-tetrahydropyran]-1-yl)-2,2-dimethyl-propyl] 4-pyrrolidin-1-ylsulfonylbenzoate]	< 100
CCc1nn(C[C@H](C)COC(=O)c2ccccc2)c2c1C(=O)NCC1(CCOCC1)C2 [Example 274, [(2S)-3-(3-ethyl-4-oxo-spiro[6,8-dihydro-5H-pyrazolo[4,3-c]azepine-7,4′-tetrahydropyran]-1-yl)-2-methyl-propyl] benzoate]	< 100
CCc1nn(CC(C)(C)COC(=O)c2ccc(S(C)(=O)=O)cc2)c2c1C(=O)NCC1(CCOCC1)C2 [Example 306, [3-(3-ethyl-4-oxo-spiro[6,8-dihydro-5H-pyrazolo[4,3-c]azepine-7,4′-tetrahydropyran]-1-yl)-2,2-dimethyl-propyl] 4-methylsulfonylbenzoate]	< 100
CCc1nn(CC(C)(C)COC(=O)c2cccc(S(=O)(=O)CC)c2)c2c1C(=O)NCC1(CCOCC1)C2 [Example 311, [3-(3-ethyl-4-oxo-spiro[6,8-dihydro-5H-pyrazolo[4,3-c]azepine-7,4′-tetrahydropyran]-1-yl)-2,2-dimethyl-propyl] 3-ethylsulfonylbenzoate]	< 100
CCOc1cccc(C(=O)OCC(C)(C)Cn2nc(CC)c3c2CC2(CCOCC2)CNC3=O)c1 [Example 299, [3-(3-ethyl-4-oxo-spiro[6,8-dihydro-5H-pyrazolo[4,3-c]azepine-7,4′-tetrahydropyran]-1-yl)-2,2-dimethyl-propyl] 3-ethoxybenzoate]	< 100
CCc1nn(CC2(COC(=O)c3ccc(Cl)cc3)CC2)c2c1C(=O)NCC1(CCOCC1)C2 [Example 355, [1-[(3-ethyl-4-oxo-spiro[6,8 dihydro-5H-pyrazolo[4,3-c]azepine-7,4′-letrahydropyran]-1-yl)methyl]cyclopropyl]methyl 4-chlorobenzoate]	< 100
CCc1nn(CC(C)(C)COC(=O)c2c(F)cccc2Cl)c2c1C(=O)NCC1(CCOCC1)C2 [Example 300, [3-(3-ethyl-4-oxo-spiro[6,8-dihydro-5H-pyrazolo[4,3-c]azepine-7,4′-tetrahydropyran]-1-yl)-2,2-dimethyl-propyl] 2-chloro-6-fluoro-benzoate]	< 100
